Source: PMC3098219, “Protective Efficacy of Serially Up-Ranked Subdominant CD8^+ T Cell Epitopes against Virus Challenges” (PLoS Pathogens, 2011)
Entries after “also recorded” stand apart in the source; their conditions may differ.

Columns and labels:
CD8^+ T cells [1] = test: Immunodominance hierarchy of T cell responses to HIVA-derived epitopes; assay type: cell-based, BALB/c mice; settings: 10 d after immunization
[2] = system: splenocytes of pTHr.HIVA immunized mice; test: IFN-γ ELISPOT immunogenicity of HIVA; assay type: cell-based, BALB/c mice; settings: Figure 1B and D top
[3] = system: H-2D^d, H-2K^d or H-2L^d complexes; test: T2 peptide binding assay, respective MHC class I complexes; settings: Figure 3A; TAP-deficient T2 cells, 100 µM to 0.1 µM peptide, 14 h at 37°C, FACS
Procedure: Figure 3 Contributing mechanisms of immunodominance. […] T2 cell lines were incubated with decreasing peptide concentrations ranging from 100 µM to 0.1 µM indicated above the H peptide histogram and the cell surface peptide-loaded MHC complexes were detected by fluorochrome-conjugated mAb (DB Biosciences) and quantified using FACS flow cytometer. B) and C) Groups of 3 BALB/c mice were given 3x immunizations using 100 µg of DNA expressing the index or mutated forms of HIVA at 3 wk intervals and their T cell responses were analyzed 4 wk later. B) Splenocytes were assessed in an ICS assay using peptides indicated above the graphs at concentrations ranging from 10 to 10^−8 µM for 5 h. Cells were gated on IFN-γ-producing CD8^+ T cell populations positive (top) or negative (bottom) for CD107a/b. Note the different y-axis scales on the top and bottom graphs. C) The response kinetics of CD8^+ T cells re-stimulated with 0.1 µM peptides was assessed in an ICS assay in 1-h intervals for a period of 4 h. Data shown are as mean±SD of [CD8^+CD107a/b^+IFN-γ^+ cells at each time point (%)] ÷ [CD8^+CD107a/b^+IFN-γ^+ at 4 h (%)]. One out of two independent experiments is shown.
TAP2 ([…])-deficient T2 cell lines stably expressing D^d, K^d, and L^d molecules kindly provided by Dr. Ted Hansen (Washington university, U.S.A.) were used to assess the ability of MHCs to bind each peptide. In brief, 1×10^5 cells were incubated with 0/0.1/1.0/10/100 µM peptides in no-serum RPMI (R-0) for 14 h at 37°C, 5% CO2 in a flat-bottomed 96-well plate. 14 h later, cells were transferred to a round-bottomed 96-well plate and washed with PBS before staining the cells with anti-H-2K^d/H-2D^d-PE or anti-H-2L^d-PE (eBioscience) monoclonal antibodies. Cells were then analyzed on a FACS flow cytometer.

[4] = system: syngeneic peptide-pulsed cells; test: in vivo killing assay (lysis of syngeneic peptide-pulsed cells); set-up: species or system BALB/c mice; settings: HIVAdH vaccinated relative to HIVA vaccination; Figure 1F
CD8^+CD107a/b^+ T cells = test: Multicolour flow cytometry after mixed or split vaccination; assay type: cell-based, BALB/c mice
[5] = system: CD8^+ splenocytes of DNA-immunized mice; test: ICS T cell avidity (peptide titration, CD107a/b and IFN-γ); assay type: cell-based, BALB/c mice; settings: Figure 3B; individual determinants when dominant: H in group HIVA, P in HIVAdH, G1 in dHmP, NPP in dHmPG1; 3x 100 µg DNA; 5 h
Procedure: T2 cell lines were incubated with decreasing peptide concentrations ranging from 100 µM to 0.1 µM indicated above the H peptide histogram and the cell surface peptide-loaded MHC complexes were detected by fluorochrome-conjugated mAb (DB Biosciences) and quantified using FACS flow cytometer. B) and C) Groups of 3 BALB/c mice were given 3x immunizations using 100 µg of DNA expressing the index or mutated forms of HIVA at 3 wk intervals and their T cell responses were analyzed 4 wk later. B) Splenocytes were assessed in an ICS assay using peptides indicated above the graphs at concentrations ranging from 10 to 10^−8 µM for 5 h. Cells were gated on IFN-γ-producing CD8^+ T cell populations positive (top) or negative (bottom) for CD107a/b. Note the different y-axis scales on the top and bottom graphs. C) The response kinetics of CD8^+ T cells re-stimulated with 0.1 µM peptides was assessed in an ICS assay in 1-h intervals for a period of 4 h. Data shown are as mean±SD of [CD8^+CD107a/b^+IFN-γ^+ cells at each time point (%)] ÷ [CD8^+CD107a/b^+IFN-γ^+ at 4 h (%)]. One out of two independent experiments is shown.
We also measured avidities of T cell responses recovered through the sequential HIVA epitope up-ranking. First, responsiveness of immune splenocytes following 3 plasmid DNA deliveries was measured in an ICS assay upon re-stimulation with peptide concentrations ranging from 10^−8 to 10 µM for 5 h (Figure 3A).

H-2K^d = H-2K^d (Mus musculus, UniProt P01902); settings: ref [34]; cited from earlier work
Excerpt: Our research interests lie in development of the T cell component of HIV-1 vaccines stimulating protective CD8^+ T cell responses. The first-generation T cell immunogen, designated HIVA (Figure 1A), has served as an extremely useful tool for iterative improving of CD8^+ T cell induction by experimental vaccines in mice, non-human primates and humans [reviewed in [30]]. To increase the power of T cell analysis and study the role of subdominant determinants, H-2^d class I-restricted epitopes contained in the HIVA immunogen were mapped in detail. Thus, the most immunodominant epitope of ...

CD8^+ T cells [6] = test: ICS of HIVB-induced responses pre- and post-EcoHIV challenge; settings: Figure 7B, pTH.HIVB DNA twice
EcoHIV/NDK = EcoHIV/NDK challenge; settings: Figure 7C and D; 2x 100 µg DNA, challenge 5 d later; splenocytes and peritoneal macrophages, qPCR

Sequence of H-2K^d (P01902 whole entry, looked up): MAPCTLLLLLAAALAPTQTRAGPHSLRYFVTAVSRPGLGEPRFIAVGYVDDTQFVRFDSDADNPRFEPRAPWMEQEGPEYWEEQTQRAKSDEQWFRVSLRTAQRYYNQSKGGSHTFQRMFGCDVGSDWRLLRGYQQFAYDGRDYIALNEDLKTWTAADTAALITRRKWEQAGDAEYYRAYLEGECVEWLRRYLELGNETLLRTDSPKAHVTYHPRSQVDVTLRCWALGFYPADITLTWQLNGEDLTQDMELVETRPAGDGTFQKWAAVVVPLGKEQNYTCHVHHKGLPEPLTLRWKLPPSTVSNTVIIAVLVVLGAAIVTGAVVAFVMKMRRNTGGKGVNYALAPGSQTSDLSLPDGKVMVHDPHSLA

Sequence: AMQMLKDTI [G1]
- hierarchy of T cell responses against HIVA-derived epitopes (CD8^+ T cells [1]): H>P>>G1>NPP>>G2
- T cell response to G1 from HIVA [2]: hardly detectable responses
- peptide binding affinities for respective MHC class I [3]: directly correlated with the immunodominance hierarchy
- in vivo lysis of peptide-pulsed targets [4]: increased in vivo lysis
- G1-specific response relative to epitopes H and P (CD8^+CD107a/b^+ T cells; Figure 4B groups 4 and 5, HIVA-dHmP and dHmP-HIVA prime-boost, 23-wk rest, WR.HIVA re-stimulation): significantly increased
- anti-G1 responses (CD8^+CD107a/b^+ T cells; Figure 4B groups 7 and 9, pre-mixed vaccines injected into 2 sites): failed to induce anti-G1 responses
- peak IFN-γ^+CD107a/b^+CD8^+ cell frequencies at 10 µM peptide [5]: 3.8 % of total CD8^+ splenocytes
- MHC class I restriction (H-2K^d) (H-2K^d): H-2K^d-restricted
- CD8^+ T cell response after HIVB vaccination (CD8^+ T cells [6]): the only detectable CD8^+ T cell response
- protection against EcoHIV/NDK challenge (EcoHIV/NDK): sufficient to induce protective efficacy; also recorded: enhanced clearance of EcoHIV/NDK infection
